For one experiment, the target named is furin (Homo sapiens, UniProt P09958). To be noted: cited from earlier work.
A further experiment concerns CD4 T cells. Description: Proliferation assay of CD4 and CD8 T cells from FR74-immunized mice. The format is cell-based. Particulars: but not CD8 T cells, from FR74-immunized FVB mice, FIG. 3A. As for the experimental part:
FIG. 3A is a plotting the stimulation indices from a proliferation assay in which CD4 and CD8 T cells from FR74-immunized mice were tested for response to non-specific stimulation (PHA), FR74 polypeptide, or an irrelevant polypeptide (Irrel pep). The stimulation index is the ratio of the thymidine incorporation in the sample with antigen and the controls ample. FIG. 3B is a graph plotting results of an IFN-γELlspot (enzyme-linked immunosorbent spot) analysis of FR74-specific T cell lines stimulated in vitro with dendritic cells (DC) pulsed with either FR74 polypeptide, FRα-overexpressing tumor cell lysate (MMC lysate), or an irrelevant polypeptide antigen (Irrel pep). Each bar is the mean (±s.e.m.) of 3 replicates.
The FR74 polypeptide can activate CD4 T cells in FVB and B6 mice, and it is naturally processed.

The next experiment concerns FR74-specific T cells. Description: IFN-γ ELIspot of T cell cultures generated ex vivo with polypeptide-pulsed DC. The format is cell-based, FVB/N mice. As for the experimental part: FIG. 4 is a graph plotting the results an IFN-γ ELIspot analyses of T cell cultures incubated with the indicated polypeptides. Epitope nesting greatly augments the numbers of antigen-specific T cells. T cells were tested in ELIspot against native FR74 polypeptide at various concentrations. Each data point is the mean of 3 determinations.
FIG. 6. FR74-specific T cells generated with modified polypeptides recognized tumor lysates. […] Each bar is the mean (±s.e.m.) of 3 replicates.
FIG. 7. […] The T cells were generated at varying concentrations of polypeptides (x-axis). Each point is the mean (±s.e.m.) of 3 replicates.
In terms of proliferation, only the dual modified polypeptide was able to generate T cells that were able to proliferate at 10^−9 g/mL (FIG. 5).
In order to determine whether furin cleavage is required, two methods are used: furin insensitive linkers and furin inhibitors. Blockade of enhanced ex vivo expansion mediated by the DC3 peptide using these two methods is powerful evidence, outside of a furin knockout mouse, that furin is required for the actions of DC3. Although it has already been shown that DC3 must be linked to antigen, as a control T cells are expanded using free FR74 mixed with free DC3. To test the role of furin with furin-insensitive linkers, RARR (SEQ ID NO:4) is replaced with VRVV (SEQ ID NO:41) with the polypeptides FR74.1, FR74.3, and FR74.8 as shown in FIG. 17. In parallel with these cultures, cultures are included in which inhibitors are included. The stoichiometric peptidyl inhibitor decanoyl-Arg-Val-Lys-Arg-CH2CL (SEQ ID NO:42) and α1-antitrypsin Portland, which are the two most commonly used inhibitors, are employed. […] Cultures are examined over a range of concentrations of inhibitors and assayed as described with ELIspot and proliferation assays. To generate Th cells, CD4^+ T cells are purified by incubation of splenocytes with anti-CD4^+ MACS microbeads (Miltenyi, Auburn, Calif.) for 20 minutes at 4° C., followed by positive selection of CD4^+ T cells using an AutoMACS automatic magnetic cell sorter according to the manufacturer's specifications. Th cell lines are established with bone marrow derived DC at a concentration of 5×10^4 T cells/mL in 24-well tissue culture-treated plates in complete medium on day 0. To derive the dendritic cells (DCs), bone marrow is harvested from the long bones of FVB/N mice and seeded in 6-well plates (3×10^6/well) in complete media with murine GM-CSF (10 ng/mL) and IL-4 (1 ng/mL). Media and cytokines are replaced after 3 days. On day 5, CPG is added to the cultures at 1 μg/mL, and the cells are ready for T cell induction on day 6. The tissue culture-generated DC are pulsed with 10 μg/mL FR74 peptide or its modifications and 10 μg/mL B7DC-crosslinking antibody at 37° C. for 4 hours. In these experiments, constant mass is maintained. Next, the peptide-loaded DC are washed with media, and the CD4+ T cells are added, and on days 8 and 10, IL-2 (50 U/mL) is added. On day 15, cells are assayed. For the ELIspot analysis, anti-IFN-γ (Pharmingen) antibody is added to a 96-well nitrocellulose-backed plate (NC-plate, Millipore) at 50 μL/well at a concentration of 10 μg/mL in PBS and incubated overnight at 4° C. The day of analysis, the NC-plate is washed with PBS and blocked for 1-2 hours at 37° C. with PBS/2%BSA. After blocking, the plate are again washed. The Th cells are transferred to the antibody-coated plates. Syngeneic naïve CD4 T cells alone without peptide antigen are used as the negative control. Th cells are seeded at 5×10^4 cells/well with a range of native (i.e., FR74) peptide, irrelevant peptide, FRαMMC tumor lysate, irrelevant tumor lysate, media or concanavalin A. Irradiated syngeneic splenocytes are added at 1 ×10^5 cells/well as antigen-presenting cells. The plate is incubated at 37° C. for 24 hours. The plate are washed with PBS/0.05% Tween-20, and 100 μL/well biotinylated anti-IFN-γ(5 μg/mL, Pharmingen) antibody are added to each well. […]

Experiment [1] can be described thus: Immunogenicity of FR74 used as a vaccine with adjuvant. In kind it is in vivo. Particulars: with complete Freund's adjuvant (CFA), CpG, or GM-CSF. The source says:
A native helper epitope designated FR74 was a peptide derived from the folate receptor alpha (FRα) (FIG. 2). FRα (also referred to as folate binding protein) is a glycophosphatidyl-anchored membrane glycoprotein that mediates cellular uptake of folate. This polypeptide is over-expressed on many cancers at levels of up to 80-90-fold relative to the levels observed on normal tissues. FRα is an antigen that can be used across strains, which allows one to test various strategies amongst many different I-A and I-E backgrounds. […] FR74 was modified at the amino-terminus end with an Ii-key and at the carboxy terminus with a DC3 amino acid motif (FIG. 2). To reduce enzymatic degradation in cell culture, the amino terminus of FR74 was acetylated to make FR74.1. FR74.2 is FR74 conjugated to Ii-key. It is attached with a flexible, noncleavable linker FR74.3 is FR74 conjugated to a DC3 polypeptide using a furin sensitive linker to permit cleavage. Furin is an endopeptidase that normally proteolytically activates a large number of proproteins in the cell, and it is predominantly localized to the […] (Thomas, G., Nat. Rev. Mol. Cell Biol., 3(10):753-66 (2002)). FR74.4 is a dual conjugated polypeptide. All modified peptides were acetylated at the amino terminus to prevent degradation.

The subject of another experiment is Th cells. Description: Cytokine secretion and Th subsets of T cell cultures under varied culture conditions. The format is cell-based. As for the experimental part: FIG. 19. […] Cytokines were measured following stimulation of cells with splenocytes pulsed with either no antigen (open bars) or native FR74 polypeptide. To avoid contamination of cell culture supernatants with splenocyte-derived cytokines, the T cells were purified from the splenocytes prior to incubation to measure cytokines Each bar is the mean (±s.e.m.) of duplicate samples. Results are representative of 2 experiments.
FIG. 20. Manipulation of culture conditions can reduce levels of IL-5 and IL-10 secreting Th cells. Shown are the concentrations of IL-5 and IL-10 within T-cell culture media following simulation of Th cells with or without peptide antigen. Each bar is the mean (±s.e.m.) of duplicate samples.
FIG. 25. Manipulation of culture conditions can reduce levels of IL-5 secreting T cells. Shown are the concentrations of IL-5 within T cell culture media following stimulation of Th cells with or without polypeptide antigen. Each bar is the mean (±s.e.m.) of duplicate samples.
FIG. 26. […] Shown are the concentrations of IL-17 within T cell culture media following simulations of Th cells with or without polypeptide antigen. Each bar is the mean (±s.e.m.) of duplicate samples.
Another item is that Th subset skewing may occur which could cloud interpretations of the polypeptide modifications. […]

Sequence of furin (P09958 108-794, species assumed): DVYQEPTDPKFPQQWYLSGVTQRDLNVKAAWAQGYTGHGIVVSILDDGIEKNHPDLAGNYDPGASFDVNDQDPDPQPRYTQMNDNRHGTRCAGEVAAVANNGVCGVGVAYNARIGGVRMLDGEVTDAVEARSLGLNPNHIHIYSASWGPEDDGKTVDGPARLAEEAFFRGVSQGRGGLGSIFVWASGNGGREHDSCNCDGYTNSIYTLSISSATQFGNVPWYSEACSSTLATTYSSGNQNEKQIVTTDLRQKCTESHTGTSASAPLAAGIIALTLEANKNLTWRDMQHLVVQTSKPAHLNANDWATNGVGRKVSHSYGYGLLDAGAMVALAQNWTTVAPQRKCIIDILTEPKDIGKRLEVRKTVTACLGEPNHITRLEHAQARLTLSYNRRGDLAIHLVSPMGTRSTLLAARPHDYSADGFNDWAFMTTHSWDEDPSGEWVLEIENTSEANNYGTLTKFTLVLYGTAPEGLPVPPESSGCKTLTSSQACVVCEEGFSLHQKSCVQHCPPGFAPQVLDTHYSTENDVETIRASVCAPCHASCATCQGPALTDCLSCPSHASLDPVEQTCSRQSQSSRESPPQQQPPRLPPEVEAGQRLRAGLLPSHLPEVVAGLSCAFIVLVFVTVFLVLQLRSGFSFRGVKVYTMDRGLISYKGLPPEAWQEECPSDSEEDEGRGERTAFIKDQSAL

α1-antitrypsin: the selectivity for furin result on furin was “highly selective for furin”. Moreover, the inhibition constant Ki at furin (furin) is 0.6 nM.
Take decanoyl-Arg-Val-Lys-Arg-CH2CL: on furin, the selectivity for furin result is reported as “not selective”.
Take KDISYLYRFNWNHCG [FR74]: in the experiment with CD4 T cells, the “proliferation in response to the FR74 polypeptide (stimulation index)” value is given as “increased proliferation”. For the same molecule, in the experiment with FR74-specific T cells (IFN-γ ELIspot, FIG. 3B), the “recognition of FRα+ tumor lysates (MMC) pulsed onto DC by FR74-specific T cell lines” value is “recognize FRα^+ tumor lysates”. Besides, in the experiment on FR74-specific T cells (using activated DC), the “immunogenicity when used to generate T cell lines” value was “relatively non-immunogenic”. For the same molecule, the “immunogenicity as a vaccine” value in experiment [1] is “highly immunogenic”.

B1: IFN-γ: cytokine included in T cell culture (protein, UniProt P01579 24-161, looked up)
Interferon gamma: QDPYVKEAENLKKYFNAGHSDVADNGTLFLGILKNWKEESDRKIMQSQIVSFYFKLFKNFKDDQSIQKSVETIKEDMNVKFFNSNKKKRDDFEKLTNYSVTDLNVQRKAIHELIQVMAELSPAAKTGKRKRSQMLFRG
With B1, the “generation of IL-17-secreting Th cells” value in the experiment on Th cells (FIG. 26) is listed as “blocks generation of IL-17-secreting Th cells”. Further, the “Th2 effectors (IL-5) in FR74.4 cultures” value in the experiment on Th cells (cells incubated with FR74.4 with DC and IL-2, FIG. 25) is “completely blocked”.

The record behind these values is patent US8858952B2, “Methods and materials for generating T cells” (Mayo Foundation for Medical Education and Research, priority 2009, dated 2014).
